Results reported in publication PMC7615343, “Fluorination Influences the Bioisostery of Myo-Inositol Pyrophosphate Analogs” (Chemistry (Weinheim an der Bergstrasse, Germany), 2023).

Test: Anion-exchange HPLC of [33P]-labeled products of PPIP5K2-mediated phosphorylation (relative polarity)
Format: physicochemical
Conditions: PartiSphere SAX column, NH4H2PO4 gradient pH 4.0; elution order 5PA-IP5 < 5PCF2Am-IP5 < 5PCP-IP5 < 5PCF2P-IP5 < 5PP-IP5
Text: Lastly, we also developed a protocol by which we can infer the relative polarities of each of the analogs. […] As shown above, 5PA-IP5 and the other analogs each bind in potentially productive orientations in which the 1-phosphate is presented to the active site. Therefore, we attempted to radiolabel each of the analogs by incorporation of [33]Pi from [33]P-γ-ATP, with the objective of resolving each of the [33]P-labeled products by anion-exchange HPLC. We reasoned that this assay could provide an empirical comparison of the relative degree of acidity of each reaction product - and more instructively - the substrates themselves. It should be emphasized that this experiment cannot inform on the relative rates of phosphorylation, in large part because the experimental protocol (low mass levels of high-specific radioactivity of [33]P-γ-ATP) are not appropriate for biologically-relevant kinetic determinations.
Figure 6 HPLC analysis of the products of PPIP5K-mediated phosphorylation of 5PP-IP5 and the various analogs. […]
Kinase activity was studied at 37°C by incubating 700 ng PPIP5K2^1-366 separately with each individual 10 μM test compound and 50 μM ATP plus 60,000 CPM of [^33P-γ]ATP for 30 mins. Assays were quenched with 0.2 volumes of 2 M perchloric acid, neutralized, and [^33P]-labeled products were analyzed by ion-exchange HPLC, using a 4.6 × 125 mm, 5 μm PartiSphere SAX column. […]

O=P(O)(O)O[C@H]1[C@@H](OP(=O)(O)O)[C@H](OP(=O)(O)O)[C@@H](OP(=O)(O)C(F)(F)P(=O)(O)O)[C@H](OP(=O)(O)O)[C@H]1OP(=O)(O)O [5PCF2P-IP5]
Relative HPLC elution of phosphorylated product (protonation state / global polarity compared with 5PP-IP5): most closely resembles the natural molecule with regards to its protonation state
